The results in this text go back to US12649750B2, “Macrocyclic compounds, compositions, and methods of using thereof” (Sionna Therapeutics Inc., priority 2022, dated 2026).

The target of test [1] is T1, NBD1 (Homo sapiens, UniProt P13569).
T1 construct: Purified recombinant NBD1 was produced using previously described methods; made in house
In words: Aggregation analysis using differential static light scattering (DSLS), thermal stability of NBD1 (ΔTagg). As to conditions: ΔTagg versus DMSO control, NBD1 0.2 mg/ml. The class given is binding. An outline of the steps:
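Differential static light scattering read from 25° C. to 70° C. every 0.5° C., ramp 1° C./min, on recombinant NBD1 (0.2 mg/ml; Tris/NaCl/MgCl2 buffer with 2 mM ATP, 2 mM DTT, pH 7.6, 1% glycerol) plus compound. Reported ΔTagg subtracts averaged DMSO Tagg from inflection-point Tagg; categories A ≤5, B >5-10, C >10-25° C.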

Test [2] concerns the target T2, CFTR (Homo sapiens, UniProt P13569, DEL508-508).
T2 construct: Primary human bronchial epithelial cells from a ΔF508 homozygous CF donor; host or cells: primary human bronchial epithelial cells (CF-HBE), ΔF508 homozygous donor
In words: TECC24 AUC fold over DMSO @10 μM, CFTR-mediated transepithelial chloride transport in CF-HBE cells. The class given is cell-based. As to conditions: test agent AUC divided by DMSO vehicle AUC, primary CF-HBE cells, ΔF508 homozygous donor, 48 hours incubation. An outline of the steps: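 Primary ΔF508-homozygous CF bronchial epithelial cells on inserts were incubated 48 h at 36.5 °C with compound in IL-13-containing medium. VT and TEER were then recorded in current-clamp mode (pH 7.4 HEPES bath) with benzamil 10 μM, forskolin 10 μM, then CFTR inhibitor-172 20 μM. The IEQ AUC between forskolin and inhibitor was divided by vehicle AUC.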

T2 sequence (P13569 with tags, fused parts or gaps DEL508-508): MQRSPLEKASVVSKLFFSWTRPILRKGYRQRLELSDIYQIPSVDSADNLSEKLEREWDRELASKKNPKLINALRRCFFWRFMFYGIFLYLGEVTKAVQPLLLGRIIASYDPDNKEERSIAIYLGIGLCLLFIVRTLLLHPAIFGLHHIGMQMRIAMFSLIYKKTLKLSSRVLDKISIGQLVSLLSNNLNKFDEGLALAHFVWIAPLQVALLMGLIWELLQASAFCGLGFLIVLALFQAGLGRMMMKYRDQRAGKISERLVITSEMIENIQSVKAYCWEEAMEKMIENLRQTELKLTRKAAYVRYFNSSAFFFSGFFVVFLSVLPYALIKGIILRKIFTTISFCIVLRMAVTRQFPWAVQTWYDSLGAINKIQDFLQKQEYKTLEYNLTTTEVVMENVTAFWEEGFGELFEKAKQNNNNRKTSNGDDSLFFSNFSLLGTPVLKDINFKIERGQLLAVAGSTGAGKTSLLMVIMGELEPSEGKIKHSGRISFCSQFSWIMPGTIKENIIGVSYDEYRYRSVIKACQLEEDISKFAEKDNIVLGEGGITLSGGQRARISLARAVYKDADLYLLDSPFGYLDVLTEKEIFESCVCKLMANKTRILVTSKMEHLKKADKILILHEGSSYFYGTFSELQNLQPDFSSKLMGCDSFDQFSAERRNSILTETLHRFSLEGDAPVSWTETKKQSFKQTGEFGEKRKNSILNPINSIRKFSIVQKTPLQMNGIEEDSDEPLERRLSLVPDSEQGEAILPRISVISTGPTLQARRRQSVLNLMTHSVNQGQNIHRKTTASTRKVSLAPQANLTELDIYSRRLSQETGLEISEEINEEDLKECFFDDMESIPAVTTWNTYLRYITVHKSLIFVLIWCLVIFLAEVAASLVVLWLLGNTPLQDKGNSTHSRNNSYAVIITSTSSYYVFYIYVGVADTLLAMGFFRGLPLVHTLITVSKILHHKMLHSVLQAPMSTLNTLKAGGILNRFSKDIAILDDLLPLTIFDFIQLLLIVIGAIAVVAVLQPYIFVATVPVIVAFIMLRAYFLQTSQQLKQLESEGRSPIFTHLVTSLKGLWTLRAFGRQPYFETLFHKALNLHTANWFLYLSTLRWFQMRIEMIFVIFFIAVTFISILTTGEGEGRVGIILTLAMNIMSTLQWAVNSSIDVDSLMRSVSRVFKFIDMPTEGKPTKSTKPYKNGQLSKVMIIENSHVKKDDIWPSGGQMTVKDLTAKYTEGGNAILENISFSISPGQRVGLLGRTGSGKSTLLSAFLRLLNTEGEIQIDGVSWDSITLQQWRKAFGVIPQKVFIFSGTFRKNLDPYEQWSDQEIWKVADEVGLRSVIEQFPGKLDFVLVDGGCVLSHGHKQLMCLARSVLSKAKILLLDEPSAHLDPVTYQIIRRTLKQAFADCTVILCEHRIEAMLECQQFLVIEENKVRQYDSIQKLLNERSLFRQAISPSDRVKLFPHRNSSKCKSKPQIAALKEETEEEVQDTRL
T1 sequence (P13569 423-646 limits assumed): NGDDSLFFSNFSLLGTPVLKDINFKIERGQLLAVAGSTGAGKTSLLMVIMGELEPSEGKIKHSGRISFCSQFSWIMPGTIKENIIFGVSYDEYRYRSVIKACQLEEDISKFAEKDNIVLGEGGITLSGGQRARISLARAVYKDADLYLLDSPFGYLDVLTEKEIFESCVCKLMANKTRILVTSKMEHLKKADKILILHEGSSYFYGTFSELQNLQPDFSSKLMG

For the compound `Cc1c2nnn1Cc1c(c(F)cc3[nH]ccc13)Oc1ccc(F)c(c1)-c1nc(nn1C)C(C)(c1cccc(CCC(=O)O)c1)CCS(=O)(=O)C2` (single isomer, unassigned) [Compound 101A, 3-[3-(23,29-difluoro-3,6,31-trimethyl-9,9-dioxo-25-oxa-9lambda6-thia-3,4,12,13,14,20,32-heptazahexacyclo[24.3.1.12,5.111,14.016,24.017,21]-dotriaconta-1(30),2(32),4,11(31),12,16,18,21,23,26,28-undecaen-6-yl)phenyl]propanoic Acid], in test [1], the “DSLS 3D (100 μM ΔT)” value was “A (an ΔTagg value less than or equal to 5 °C is marked “A”)”. The “TECC (AUC, 10 μM)” value in test [2] is “A (a TECC value less than 12 is marked “A”)”.

`Cc1c2nnn1Cc1c(c(F)cc3[nH]ccc13)Oc1ccc(F)c(c1)-c1nc(nn1C)C(C)(c1cccc(CCC(=O)O)c1)CCS(=O)(=O)C2` (single isomer, unassigned) [Compound 101B, 3-[3-(23,29-difluoro-3,6,31-trimethyl-9,9-dioxo-25-oxa-9lambda6-thia-3,4,12,13,14,20,32-heptazahexacyclo[24.3.1.12,5.111,14.016,24.017,21]-dotriaconta-1(30),2(32),4,11(31),12,16,18,21,23,26,28-undecaen-6-yl)phenyl]propanoic Acid]: in test [1], the “DSLS 3D (100 μM ΔT)” value was “B (a value above 5 °C and less than or equal to 10 °C is marked “B”)”. The “TECC (AUC, 10 μM)” value in test [2] is “A (a TECC value less than 12 is marked “A”)”.

For the compound `Cn1nc2nc1-c1cc(ccc1F)Oc1c(F)cc3[nH]ccc3c1CCS(=O)(=O)CC(F)(F)C(C)(C)CCC2(C)c1cccc(CCC(=O)O)c1` (single isomer, unassigned) [Compound 102A, 3-[3-[10,10,22,28-tetrafluoro-3,6,9,9-tetramethyl-12,12-dioxo-24-oxa-12lambda6-thia-3,4,19,30-tetrazapentacyclo[23.3.1.12,5.015,23.016,20]-triaconta-1(29),2(30),4,15,17,20,22,25,27-nonaen-6-yl]phenyl]propanoic Acid], in test [1], the “DSLS 3D (100 μM ΔT)” value was “A (an ΔTagg value less than or equal to 5 °C is marked “A”)”. In addition, the “TECC (AUC, 10 μM)” value in test [2] is reported as “A (a TECC value less than 12 is marked “A”)”.

Turning to `Cn1nc2nc1-c1cc(ccc1F)Oc1c(F)cc3[nH]ccc3c1CCS(=O)(=O)CC(F)(F)C(C)(C)CCC2(C)c1cccc(CCC(=O)O)c1` (single isomer, unassigned) [Compound 102B, 3-[3-[10,10,22,28-tetrafluoro-3,6,9,9-tetramethyl-12,12-dioxo-24-oxa-12lambda6-thia-3,4,19,30-tetrazapentacyclo[23.3.1.12,5.015,23.016,20]triaconta-1(29),2(30),4,15,17,20,22,25,27-nonaen-6-yl]phenyl]propanoic acid], in test [1], the “DSLS 3D (100 μM ΔT)” value is “B (a value above 5 °C and less than or equal to 10 °C is marked “B”)”. In test [2], the “TECC (AUC, 10 μM)” value is listed as “B (a value between 12-20 is marked “B”)”.

For `CC(Cc1cccc(C2(CF)CCCC(C)(C)CS(=O)(=O)CCc3c(c(F)cc4[nH]ccc34)Oc3ccc(F)c(c3)-c3nc2nn3C)c1)C(=O)O` (single isomer, unassigned) [Compound 108A, 3-[3-[22,28-difluoro-6-(fluoromethyl)-3,10,10-trimethyl-12,12-dioxo-24-oxa-12λ6-thia-3,4,19,30-tetrazapentacyclo[23.3.1.12,5.015,23.016,20]triaconta-1(29),2(30),4,15,17,20,22,25,27-nonaen-6-yl]phenyl]-2-methyl-propanoic acid], the “DSLS 3D (100 μM ΔT)” value in test [1] is “A (an ΔTagg value less than or equal to 5 °C is marked “A”)”. Moreover, in test [2], the “TECC (AUC, 10 μM)” value was “A (a TECC value less than 12 is marked “A”)”.

In the case of `CC(Cc1cccc(C2(CF)CCCC(C)(C)CS(=O)(=O)CCc3c(c(F)cc4[nH]ccc34)Oc3ccc(F)c(c3)-c3nc2nn3C)c1)C(=O)O` (single isomer, unassigned) [Compound 108B, 3-[3-[22,28-difluoro-6-(fluoromethyl)-3,10,10-trimethyl-12,12-dioxo-24-oxa-12λ6-thia-3,4,19,30-tetrazapentacyclo[23.3.1.12,5.015,23.016,20]triaconta-1(29),2(30),4,15,17,20,22,25,27-nonaen-6-yl]phenyl]-2-methyl-propanoic acid], in test [1], the “DSLS 3D (100 μM ΔT)” value is “A (an ΔTagg value less than or equal to 5 °C is marked “A”)”. Also, the “TECC (AUC, 10 μM)” value in test [2] is “C (a value between 20 and 80 is marked “C”)”.

On to `Cn1nc2nc1-c1cc(ccc1F)Oc1c(F)cc3[nH]ccc3c1Cn1cc(cn1)C(C)(C)CS(=O)(=O)CCC2(C)c1cccc(CCC(=O)O)c1` (single isomer, unassigned) [Compound 109A, 3-[3-(24,30-difluoro-3,6,11,11-tetramethyl-9,9-dioxo-26-oxa-9lambda6-thia-3,4,14,15,21,33-hexazahexacyclo[25.3.1.12,5.112,15.017,25.018,22]tritriaconta-1(31),2(33),4,12(32),13,17,19,22,24,27,29-undecaen-6-yl)phenyl]propanoic Acid], for which the “DSLS 3D (100 μM ΔT)” value in test [1] is “C (a value greater than 10 °C and less than or equal to 25 °C is marked “C”)”. In test [2], the “TECC (AUC, 10 μM)” value was “C (a value between 20 and 80 is marked “C”)”.

In the case of `Cn1nc2nc1-c1cc(ccc1F)Oc1c(F)cc3[nH]ccc3c1Cn1cc(cn1)C(C)(C)CS(=O)(=O)CCC2(C)c1cccc(CCC(=O)O)c1` (single isomer, unassigned) [Compound 109B, 3-[3-(24,30-difluoro-3,6,11,11-tetramethyl-9,9-dioxo-26-oxa-9lambda6-thia-3,4,14,15,21,33-hexazahexacyclo[25.3.1.12,5.112,15.017,25.018,22]tritriaconta-1(31),2(33),4,12(32),13,17,19,22,24,27,29-undecaen-6-yl)phenyl]propanoic Acid], the “DSLS 3D (100 μM ΔT)” value in test [1] is “A (an ΔTagg value less than or equal to 5 °C is marked “A”)”. In addition, in test [2], the “TECC (AUC, 10 μM)” value is recorded as “A (a TECC value less than 12 is marked “A”)”.

Regarding `CC(Cc1cccc(C2(C)COCC(C)(C)CS(=O)(=O)CCc3c(c(F)cc4[nH]ccc34)Oc3ccc(F)c(c3)-c3nc2nn3C)c1)C(=O)O` (single isomer, unassigned) [Compound 113A], the “DSLS 3D (100 μM ΔT)” value in test [1] is “C (a value greater than 10 °C and less than or equal to 25 °C is marked “C”)”. Further, in test [2], the “TECC (AUC, 10 μM)” value is recorded as “A (a TECC value less than 12 is marked “A”)”.

As for `CC(Cc1cccc(C2(C)COCC(C)(C)CS(=O)(=O)CCc3c(c(F)cc4[nH]ccc34)Oc3ccc(F)c(c3)-c3nc2nn3C)c1)C(=O)O` (single isomer, unassigned) [Compound 113B], in test [1], the “DSLS 3D (100 μM ΔT)” value is “A (an ΔTagg value less than or equal to 5 °C is marked “A”)”. Also, in test [2], the “TECC (AUC, 10 μM)” value is “A (a TECC value less than 12 is marked “A”)”.

Regarding `[2H]C([2H])([2H])C1(c2cccc(CC(C)C(=O)O)c2)COCC(C)(C)CS(=O)(=O)CCc2c(c(F)c(F)c3[nH]ccc23)Oc2ccc(F)c(c2)-c2nc1nn2C` (single isomer, unassigned) [Compound 118A, 2-methyl-3-[3-[21,22,28-trifluoro-3,10,10-trimethyl-12,12-dioxo-6-(trideuteriomethyl)-8,24-dioxa-12λ6-thia-3,4,19,30-tetrazapentacyclo[23.3.1.12,5.015,23.016,20]triaconta-1(29),2(30),4,15,17,20,22,25,27-nonaen-6-yl]phenyl]propanoic acid], the “DSLS 3D (100 μM ΔT)” value in test [1] is “C (a value greater than 10 °C and less than or equal to 25 °C is marked “C”)”. The “TECC (AUC, 10 μM)” value in test [2] was “A (a TECC value less than 12 is marked “A”)”.

For `[2H]C([2H])([2H])C1(c2cccc(CC(C)C(=O)O)c2)COCC(C)(C)CS(=O)(=O)CCc2c(c(F)c(F)c3[nH]ccc23)Oc2ccc(F)c(c2)-c2nc1nn2C` (single isomer, unassigned) [Compound 118B, 2-methyl-3-[3-[21,22,28-trifluoro-3,10,10-trimethyl-12,12-dioxo-6-(trideuteriomethyl)-8,24-dioxa-12λ6-thia-3,4,19,30-tetrazapentacyclo[23.3.1.12,5.015,23.016,20]triaconta-1(29),2(30),4,15,17,20,22,25,27-nonaen-6-yl]phenyl]propanoic acid], the “DSLS 3D (100 μM ΔT)” value in test [1] was “A (an ΔTagg value less than or equal to 5 °C is marked “A”)”. Besides, the “TECC (AUC, 10 μM)” value in test [2] was “A (a TECC value less than 12 is marked “A”)”.

As for `[2H]C([2H])([2H])C1(c2cccc(CC(C)C(=O)O)c2)CCC(C)(C)CCS(=O)(=O)CCc2c(c(F)cc3[nH]ccc23)Oc2ccc(F)c(c2)-c2nc1nn2C` (single isomer, unassigned) [Compound 119A, 3-[3-[22,28-difluoro-3,9,9-trimethyl-12,12-dioxo-6-(trideuteriomethyl)-24-oxa-12lambda6-thia-3,4,19,30-tetrazapentacyclo[23.3.1.12,5.015,23.016,20]triaconta-1(29),2(30),4,15,17,20,22,25,27-nonaen-6-yl]phenyl]-2-methyl-propanoic acid], the “DSLS 3D (100 μM ΔT)” value in test [1] was “A (an ΔTagg value less than or equal to 5 °C is marked “A”)”. Further, the “TECC (AUC, 10 μM)” value in test [2] is on record as “A (a TECC value less than 12 is marked “A”)”.
